According to PubChem BioAssay AID2060485 (Molecular Pharmacology Branch, DTP, NCI, 2025):

Test system: A375 multi-cell spheroids with HUVEC/MSC, viability
Assay: Anticancer human tumor A375 cell line growth inhibition [GQUAD];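 also: spheroids exposed to compounds for seven days before readout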
Settings: for IC50: curve of first compound; for viability, T/C: stronger effect = lower value
In short: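 Multi-cell-type spheroids of tumor cells with HUVEC and mesenchymal stem cells, treated with drug combinations. Concentrations descend in half-log steps from near clinical Cmax, or from 10 microM where Cmax is unknown; viability read-out.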

[1] = second compound 0.0316 µM, first compound 0.0316 µM
[2] = second compound 0.0316 µM, first compound 0.1 µM
[3] = second compound 0.0316 µM, first compound 0.316 µM
[4] = second compound 0.0316 µM, first compound 1 µM
[5] = second compound 0.0316 µM, first compound 3.16 µM
[6] = second compound 0.0316 µM, first compound 10 µM
[7] = second compound 0.1 µM, first compound 0.0316 µM
[8] = second compound 0.1 µM, first compound 0.1 µM
[9] = second compound 0.1 µM, first compound 0.316 µM
[10] = second compound 0.1 µM, first compound 1 µM
[11] = second compound 0.1 µM, first compound 3.16 µM
[12] = second compound 0.1 µM, first compound 10 µM
[13] = second compound 0.316 µM, first compound 0.0316 µM
[14] = second compound 0.316 µM, first compound 0.1 µM
[15] = second compound 0.316 µM, first compound 0.316 µM
[16] = second compound 0.316 µM, first compound 1 µM
[17] = second compound 0.316 µM, first compound 3.16 µM
[18] = second compound 0.316 µM, first compound 10 µM
[19] = second compound 1 µM, first compound 0.0316 µM
[20] = second compound 1 µM, first compound 0.1 µM
[21] = second compound 1 µM, first compound 0.316 µM
[22] = second compound 1 µM, first compound 1 µM
[23] = second compound 1 µM, first compound 3.16 µM
[24] = second compound 1 µM, first compound 10 µM
[25] = second compound 3.16 µM, first compound 0.0316 µM
[26] = second compound 3.16 µM, first compound 0.1 µM
[27] = second compound 3.16 µM, first compound 0.316 µM
[28] = second compound 3.16 µM, first compound 1 µM
[29] = second compound 3.16 µM, first compound 3.16 µM
[30] = second compound 3.16 µM, first compound 10 µM
[31] = second compound 10 µM, first compound 0.0316 µM
[32] = second compound 10 µM, first compound 0.1 µM
[33] = second compound 10 µM, first compound 0.316 µM
[34] = second compound 10 µM, first compound 1 µM
[35] = second compound 10 µM, first compound 3.16 µM
[36] = second compound 10 µM, first compound 10 µM

C#Cc1c(F)ccc2cc(O)cc(-c3ncc4c(N5CC6CCC(C5)N6)nc(OCC56CCCN5CC(F)C6)nc4c3F)c12 (stereo unspecified) + Cc1cnc(CNC(=O)c2c(=O)c3ccc(N4CCCN(C)CC4)nc3n3c2sc2ccccc23)cn1
IC50 (second compound 0.0316 µM): > 10000 nM
IC50 (second compound 0.1 µM): > 10000 nM
IC50 (second compound 0.316 µM): > 10000 nM
IC50 (second compound 1 µM): < 31.6 nM
IC50 (second compound 3.16 µM): < 31.6 nM
IC50 (second compound 10 µM): < 31.6 nM
viability, T/C [1]: 106%
viability, T/C [2]: 109%
viability, T/C [3]: 121%
viability, T/C [4]: 120%
viability, T/C [5]: 117%
viability, T/C [6]: 117%
viability, T/C [7]: 79%
viability, T/C [8]: 74.6%
viability, T/C [9]: 93.8%
viability, T/C [10]: 85.1%
viability, T/C [11]: 88.3%
viability, T/C [12]: 96%
viability, T/C [13]: 59.1%
viability, T/C [14]: 51.8%
viability, T/C [15]: 64.3%
viability, T/C [16]: 55.1%
viability, T/C [17]: 58.6%
viability, T/C [18]: 47.9%
viability, T/C [19]: 42.6%
viability, T/C [20]: 42.6%
viability, T/C [21]: 39.4%
viability, T/C [22]: 40%
viability, T/C [23]: 37.4%
viability, T/C [24]: 38.8%
viability, T/C [25]: 40.6%
viability, T/C [26]: 36.9%
viability, T/C [27]: 36.6%
viability, T/C [28]: 34.7%
viability, T/C [29]: 36.3%
viability, T/C [30]: 33.7%
viability, T/C [31]: 25.7%
viability, T/C [32]: 28.3%
viability, T/C [33]: 33.2%
viability, T/C [34]: 34%
viability, T/C [35]: 33.2%
viability, T/C [36]: 32.3%

C=CCn1c(=O)c2cnc(Nc3ccc(N4CCN(C)CC4)cc3)nc2n1-c1cccc(C(C)(C)O)n1 + Cc1cnc(CNC(=O)c2c(=O)c3ccc(N4CCCN(C)CC4)nc3n3c2sc2ccccc23)cn1
IC50 (second compound 0.0316 µM): 900 nM
IC50 (second compound 0.1 µM): 408 nM
IC50 (second compound 0.316 µM): 96.7 nM
IC50 (second compound 1 µM): < 31.6 nM
IC50 (second compound 3.16 µM): < 31.6 nM
IC50 (second compound 10 µM): < 31.6 nM
viability, T/C [1]: 93.1%
viability, T/C [2]: 95.3%
viability, T/C [3]: 81%
viability, T/C [4]: 48.3%
viability, T/C [5]: 12.3%
viability, T/C [6]: 9.5%
viability, T/C [7]: 70.2%
viability, T/C [8]: 69.7%
viability, T/C [9]: 50.6%
viability, T/C [10]: 38%
viability, T/C [11]: 15.1%
viability, T/C [12]: 9.57%
viability, T/C [13]: 57.6%
viability, T/C [14]: 50.6%
viability, T/C [15]: 36.7%
viability, T/C [16]: 28.1%
viability, T/C [17]: 14.9%
viability, T/C [18]: 10.7%
viability, T/C [19]: 37.1%
viability, T/C [20]: 33.7%
viability, T/C [21]: 31.6%
viability, T/C [22]: 25.3%
viability, T/C [23]: 16.1%
viability, T/C [24]: 11.4%
viability, T/C [25]: 32%
viability, T/C [26]: 33.6%
viability, T/C [27]: 27.2%
viability, T/C [28]: 25.7%
viability, T/C [29]: 17%
viability, T/C [30]: 12%
viability, T/C [31]: 28.8%
viability, T/C [32]: 28.9%
viability, T/C [33]: 26.8%
viability, T/C [34]: 21.6%
viability, T/C [35]: 16.8%
viability, T/C [36]: 13.8%

CC(C)(O)C1CCC(Nc2ccc3ncc(-c4cccc(C(F)(F)F)c4)n3n2)CC1 (stereo unspecified) + Cc1cnc(CNC(=O)c2c(=O)c3ccc(N4CCCN(C)CC4)nc3n3c2sc2ccccc23)cn1
IC50 (second compound 0.0316 µM): > 10000 nM
IC50 (second compound 0.1 µM): 1730 nM
IC50 (second compound 0.316 µM): 124 nM
IC50 (second compound 1 µM): < 31.6 nM
IC50 (second compound 3.16 µM): < 31.6 nM
IC50 (second compound 10 µM): < 31.6 nM
viability, T/C [1]: 104%
viability, T/C [2]: 110%
viability, T/C [3]: 103%
viability, T/C [4]: 96.1%
viability, T/C [5]: 65.3%
viability, T/C [6]: 91.2%
viability, T/C [7]: 85.9%
viability, T/C [8]: 79.5%
viability, T/C [9]: 78.2%
viability, T/C [10]: 54.5%
viability, T/C [11]: 41%
viability, T/C [12]: 49.1%
viability, T/C [13]: 55%
viability, T/C [14]: 53.4%
viability, T/C [15]: 45.5%
viability, T/C [16]: 38.8%
viability, T/C [17]: 31.7%
viability, T/C [18]: 29.7%
viability, T/C [19]: 38.5%
viability, T/C [20]: 40.9%
viability, T/C [21]: 38%
viability, T/C [22]: 31.4%
viability, T/C [23]: 27.6%
viability, T/C [24]: 25%
viability, T/C [25]: 32.5%
viability, T/C [26]: 35.4%
viability, T/C [27]: 33%
viability, T/C [28]: 26.3%
viability, T/C [29]: 17.5%
viability, T/C [30]: 23.8%
viability, T/C [31]: 29.4%
viability, T/C [32]: 27.5%
viability, T/C [33]: 28.9%
viability, T/C [34]: 21.2%
viability, T/C [35]: 8.8%
viability, T/C [36]: 0.26%
